Data on eight molecules can be found in BindingDB's records for doi:10.1021/jm00099a006 (Merck Research Laboratories, 1992).

Bounds are passed on as bounds.

The test deals with T1, Gag-Pol polyprotein [588-1027]/[588-1147] (Human immunodeficiency virus 1, UniProt P04585).
T1 construct: 588-1027; 588-1147
In words: HIV-1 RT Assay. The conditions noted are these: pH 8.2.
Molecule `CCc1cc(CCN2C(=O)c3ccccc3C2=O)c(OC)nc1C` [2-[2-(5-ethyl-2-methoxy-6-methylpyridin-3-yl)ethyl]-2,3-dihydro-1H-isoindole-1,3-dione] returned a 50% inhibitory concentration (IC50) of 6.2 µM.

`CCc1cc(CCCN2C(=O)c3ccccc3C2=O)c(OC)nc1C` [2-[3-(5-ethyl-2-methoxy-6-methylpyridin-3-yl)propyl]-2,3-dihydro-1H-isoindole-1,3-dione] gave an IC50 greater than 300 µM.

Take `CCc1cc(C(O)CN2C(=O)c3ccccc3C2=O)c(OC)nc1C` (stereo not drawn) [2-[2-(5-ethyl-2-methoxy-6-methylpyridin-3-yl)-2-hydroxyethyl]-2,3-dihydro-1H-isoindole-1,3-dione]: the IC50 is greater than 300 µM.

For the molecule `CCc1cc(C(O)CN2C(=O)c3ccccc3C2=O)c(O)nc1C` (stereo not drawn) [2-[2-(5-ethyl-6-methyl-2-oxo-1,2-dihydropyridin-3-yl)-2-hydroxyethyl]-2,3-dihydro-1H-isoindole-1,3-dione], the IC50 was greater than 300 µM.

Regarding `CCc1cc(C(=O)CN2C(=O)c3ccccc3C2=O)c(OC)nc1C` [2-[2-(5-ethyl-2-methoxy-6-methylpyridin-3-yl)-2-oxoethyl]-2,3-dihydro-1H-isoindole-1,3-dione], the IC50 was greater than 300 µM.

`CCc1cc(C(=O)CN2C(=O)c3ccccc3C2=O)c(=O)[nH]c1C` [2-[2-(5-ethyl-6-methyl-2-oxo-1,2-dihydropyridin-3-yl)-2-oxoethyl]-2,3-dihydro-1H-isoindole-1,3-dione] came in with an IC50 greater than 300 µM.

The molecule `O=C1c2ccccc2C(=O)N1CCc1cccnc1O` [2-[2-(2-oxo-1,2-dihydropyridin-3-yl)ethyl]-2,3-dihydro-1H-isoindole-1,3-dione] showed a 50% inhibitory concentration (IC50) greater than 300 µM.

Regarding `CCc1cc(CN2C(=O)c3ccccc3C2=O)c(OC)nc1C` [2-[(5-ethyl-2-methoxy-6-methylpyridin-3-yl)methyl]-2,3-dihydro-1H-isoindole-1,3-dione], the IC50 was determined as 16 µM.
